Results from patent US20160312261A1, “ENZYMATIC PRODUCTION OF CYTOSINIC NUCLEOSIDE ANALOGUES” (PLASMIA BIOTECH, S.L., priority 2015, published 2016).

Assay: Thermal stability of Capecitabine on heating
Type: physicochemical
Settings: heating at 90° C. during 10 hours at neutral pH
Description: The one step process for the preparation of Capecitabine disclosed in WO 2011/104540 suffers from important loses of the final product. Capecitabine suffers from thermal instability at high temperatures, and after heating the product at 90° C. during 10 hours at neutral pH, up to 40% of the product is lost. On the contrary, the enzymatic process of the invention runs at milder conditions, using water as solvent and furnishing yields higher than 70%.

## CCCCCOC(=O)Nc1nc(=O)n([C@@H]2O[C@H](C)[C@@H](O)[C@H]2O)cc1F [Capecitabine, N^4-pentyloxycarbonyl-5′-deoxy-5-fluorocytidine]
  product lost after heating (thermal instability): up to 40%
